Data taken from US9650340B2, “5-fluoro-N-(pyridin-2-yl)pyridin-2-amine derivatives containing a sulfoximine group” (BAYER PHARMA AKTIENGESELLSCHAFT, priority 2012, dated 2017).
Structures can show the parent of a compound that is named as a salt. Where two headings read alike, the source gives them in different places.

Key:
[1] = target: T1, CDK2/CycE (Homo sapiens, UniProt P24941); test: CDK2/CycE high ATP kinase assay (TR-FRET, 2 mM ATP); type: biochemical; settings: Method 2b
T1 construct: GST; purchased ProQinase GmbH (Freiburg, Germany); host or cells: insect cells (Sf9)
Method: 2b. CDK2/CycE High ATP Kinase Assay:
CDK2/CycE-inhibitory activity of compounds of the present invention at 2 mM adenosine-tri-phosphate (ATP) was quantified employing the CDK2/CycE TR-FRET (TR-FRET=Time Resolved Fluorescence Energy Transfer) assay as described in the following paragraphs.
Recombinant fusion proteins of GST and human CDK2 and of GST and human CycE, expressed in insect cells (Sf9) and purified by Glutathion-Sepharose affinity chromatography, were purchase from ProQinase GmbH (Freiburg, Germany). As substrate for the kinase reaction biotinylated peptide biotin-Ttds-[…] (C-terminus in amid form) was used which can be purchased e.g. form the company JERINI peptide technologies (Berlin, Germany).
For the assay 50 nl of a 100 fold concentrated solution of the test compound in DMSO was pipetted into a black low volume 384 well microtiter plate (Greiner Bio-One, Frickenhausen, Germany), 2 μl of a solution of CDK2/CycE in aqueous assay buffer [50 mM Tris/HCl pH 8.0, 10 mM MgCl2, 1.0 mM dithiothreitol, 0.1 mM sodium ortho-vanadate, 0.01% (v/v) Nonidet-P40 (Sigma)] were added and the mixture was incubated for 15 min at 22° C. to allow pre-binding of the test compounds to the enzyme before the start of the kinase reaction. Then the kinase reaction was started by the addition of 3 μl of a solution ATP (3.33 mM=>final conc. in the 5 μl assay volume is 2 mM) and substrate (1.25 μM=>final conc. in the 5 μl assay volume is 0.75 μM) in assay buffer and the resulting mixture was incubated for a reaction time of 25 min at 22° C. The concentration of CDK2/CycE was adjusted depending of the activity of the enzyme lot and was chosen appropriate to have the assay in the linear range, typical concentrations were in the range of 15 ng/ml. The reaction was stopped by the addition of 5 μl of a solution of TR-FRET detection reagents (0.2 μM streptavidine-XL665 [Cisbio Bioassays, Codolet, France] and 1 nM anti-RB(pSer807/pSer811)-antibody from BD Pharmingen [#558389] and 1.2 nM LANCE EU-W1024 labeled anti-mouse IgG antibody [Perkin-Elmer, product no. AD0077, as an alternative a Terbium-cryptate-labeled anti-mouse IgG antibody from Cisbio Bioassays can be used]) in an aqueous EDTA-solution (100 mM EDTA, 0.2% (w/v) bovine serum albumin in 100 mM HEPES/NaOH pH 7.0).
The resulting mixture was incubated 1 h at 22° C. to allow the formation of complex between the phosphorylated biotinylated peptide and the detection reagents. Subsequently the amount of phosphorylated substrate was evaluated by measurement of the resonance energy transfer from the Eu-chelate to the streptavidine-XL. Therefore, the fluorescence emissions at 620 nm and 665 nm after excitation at 350 nm were measured in a TR-FRET reader, e.g. a Rubystar (BMG Labtechnologies, Offenburg, Germany) or a Viewlux (Perkin-Elmer). The ratio of the emissions at 665 nm and at 622 nm was taken as the measure for the amount of phosphorylated substrate.

[2] = test system: DU 145, hormone-independent human prostate carcinoma cells; test: Proliferation assay, DU145 (crystal violet); type: cell-based; settings: DU145, 4 days, read-out: Inhibition of DU145 cell proliferation IC50
Method: Cultivated tumour cells (HeLa, human cervical tumour cells, ATCC CCL-2; NCI-H460, human non-small cell lung carcinoma cells, ATCC HTB-177; A2780, human ovarian carcinoma cells, ECACC #93112519; DU 145, hormone-independent human prostate carcinoma cells, ATCC HTB-81; HeLa-MaTu-ADR, multidrug-resistant human cervical carcinoma cells, EPO-GmbH Berlin; Caco-2, human colorectal carcinoma cells, ATCC HTB-37; B16F10, mouse melanoma cells, ATCC CRL-6475) were plated at a density of 5,000 cells/well (DU145, HeLa-MaTu-ADR), 3,000 cells/well (NCI-H460, HeLa), 2,500 cells/well (A2780), 1,500 cells/well (Caco-2), or 1,000 cells/well (B16F10) in a 96-well multititer plate in 200 μL of their respective growth medium supplemented 10% fetal calf serum. After 24 hours, the cells of one plate (zero-point plate) were stained with crystal violet (see below), while the medium of the other plates was replaced by fresh culture medium (200 μl), to which the test substances were added in various concentrations (0 μM, as well as in the range of 0.001-10 μM; the final concentration of the solvent dimethyl sulfoxide was 0.5%). The cells were incubated for 4 days in the presence of test substances. Cell proliferation was determined by staining the cells with crystal violet: the cells were fixed by adding 20 μl/measuring point of an 11% glutaric aldehyde solution for 15 minutes at room temperature. After three washing cycles of the fixed cells with water, the plates were dried at room temperature. The cells were stained by adding 100 μl/measuring point of a 0.1% crystal violet solution (pH 3.0). After three washing cycles of the stained cells with water, the plates were dried at room temperature. The dye was dissolved by adding 100 μl/measuring point of a 10% acetic acid solution. The extinction was determined by photometry at a wavelength of 595 nm. The change of cell number, in percent, was calculated by normalization of the measured values to the extinction values of the zero-point plate (=0%) and the extinction of the untreated (0 μm) cells (=100%). The IC50 values (inhibitory concentration at 50% of maximal effect) were determined by means of a 4 parameter fit. Non-adherent MOLM-13 human acute myeloid leukemia cells (DSMZ ACC 554) were seeded at a density of 5,000 cells/well in a 96-well multititer plate in 100 μL of growth medium supplemented 10% fetal calf serum. After 24 hours, cell viability of one plate (zero-point plate) was determined with the Cell Titre-Glo Luminescent Cell Viability Assay (Promega), while 50 μL of test compound containing medium was added to the wells of the other plates (final concentrations in the range of 0.001-10 μM and DMSO controls; the final concentration of the solvent dimethyl sulfoxide was 0.5%). Cell viability was assessed after 72-hour exposure with the Cell Titre-Glo Luminescent Cell Viability Assay (Promega).

Structure (SMILES)	IC50 [1] [nM]	IC50 ([2]; Homo sapiens, DU-145, 96 h) [nM]	IC50 [2] [nM]
COc1cc(F)ccc1-c1cc(Nc2cc(CS(C)(=O)=NC(=O)C(F)(F)F)cc(C(F)(F)F)n2)ncc1F (single isomer, unassigned; (+)) [Example 24, (+)-2,2,2-Trifluoro-N-[{[2-{[5-fluoro-4-(4-fluoro-2-methoxyphenyl)pyridin-2-yl]amino}-6-(trifluoromethyl)-pyridin-4-yl]methyl}(methyl)oxido-λ^6-sulfanylidene]acetamide]	4000	33	–
CCOc1cc(F)ccc1-c1cc(Nc2cc(CS(C)(=N)=O)cc(F)n2)ncc1F (single isomer, unassigned; (+)) [Example 28, (+)-4-(2-Ethoxy-4-fluorophenyl)-5-fluoro-N-{6-fluoro-4-[(S-methylsulfonimidoyl)methyl]pyridin-2-yl}pyridin-2-amine]	1170	120	–
COc1cc(F)ccc1-c1cc(Nc2cc(CS(C)(=O)=NC(=O)C(F)(F)F)cc(C(F)(F)F)n2)ncc1F (single isomer, unassigned; (-)) [Example 25, (−)-2,2,2-Trifluoro-N-[{[2-{[5-fluoro-4-(4-fluoro-2-methoxyphenyl)pyridin-2-yl]amino}-6-(trifluoromethyl)-pyridin-4-yl]methyl}(methyl)oxido-λ^6-sulfanylidene]acetamide]	2640	–	37
CCOc1cc(F)ccc1-c1cc(Nc2cc(CS(C)(=N)=O)cc(F)n2)ncc1F (single isomer, unassigned; (-)) [Example 29, (−)-4-(2-Ethoxy-4-fluorophenyl)-5-fluoro-N-{6-fluoro-4-[(S-methylsulfonimidoyl)methyl]pyridin-2-yl}pyridin-2-amine]	1710	–	110
COc1cc(F)ccc1-c1cc(Nc2cc(CS(C)(=N)=O)ccn2)ncc1F.Cl (single isomer, unassigned; enantiomer 2) [Example 14, 5-Fluoro-4-(4-fluoro-2-methoxyphenyl)-N-{4-[(S-methylsulfonimidoyl)methyl]pyridin-2-yl}pyridin-2-amine hydrochloride; enantiomer 2]	3410	–	33

Next, values leading:

IC50 [1] [nM]	IC50 ([2]; Homo sapiens, DU-145, 96 h) [nM]	IC50 [2] [nM]	Structure (SMILES)
1120	38	–	COc1cc(F)ccc1-c1cc(Nc2cc(CS(C)(=N)=O)cc(C)n2)ncc1F (single isomer, unassigned; (+)) [Example 32, (+)-5-Fluoro-4-(4-fluoro-2-methoxyphenyl)-N-{6-methyl-4-[(S-methylsulfonimidoyl)methyl]pyridin-2-yl}pyridin-2-amine]
2490	–	37	COc1cc(F)ccc1-c1cc(Nc2cc(CS(C)(=N)=O)ccn2)ncc1F (single isomer, unassigned; (-)) [Example 3, (−)-5-Fluoro-4-(4-fluoro-2-methoxyphenyl)-N-{4-[(S-methylsulfonimidoyl)methyl]pyridin-2-yl}pyridin-2-amine]
815	–	58	COc1cc(F)ccc1-c1cc(Nc2cc(CS(C)(=N)=O)cc(F)n2)ncc1F (single isomer, unassigned; (-)) [Example 20, (−)-5-Fluoro-4-(4-fluoro-2-methoxyphenyl)-N-{6-fluoro-4-[(S-methylsulfonimidoyl)methyl]pyridin-2-yl}pyridin-2-amine]
283	–	34	COc1cc(F)ccc1-c1cc(Nc2cc(CS(C)(=N)=O)cc(C(F)(F)F)n2)ncc1F (single isomer, unassigned; (-)) [Example 23, (−)-5-Fluoro-4-(4-fluoro-2-methoxyphenyl)-N-{4-[(S-methylsulfonimidoyl)methyl]-6-(trifluoromethyl)pyridin-2-yl}pyridin-2-amine]
680	–	31	COc1cc(F)ccc1-c1cc(Nc2cc(CS(C)(=N)=O)cc(C)n2)ncc1F (single isomer, unassigned; (-)) [Example 33, (−)-5-Fluoro-4-(4-fluoro-2-methoxyphenyl)-N-{6-methyl-4-[(S-methylsulfonimidoyl)methyl]pyridin-2-yl}pyridin-2-amine]
5150	–	120	COc1cc(F)ccc1-c1cc(Nc2cc(CS(C)(=N)=O)ccn2)ncc1F (single isomer, unassigned; enantiomer 1) [Example 16, 5-Fluoro-4-(4-fluoro-2-methoxyphenyl)-N-{4-[(S-methylsulfonimidoyl)methyl]pyridin-2-yl}pyridin-2-amine hydrochloride; enantiomer 1]
